Reference: ChEMBL document CHEMBL4402571, “Methylation of Daptomycin Leading to the Discovery of Kynomycin, a Cyclic Lipodepsipeptide Active against Resistant Pathogens” (J Med Chem, 2020)
Converted amounts (≈) assume the structure as drawn.

Columns and labels:
HEK293 [1] = test: Cytotoxicity against HEK293 cells assessed as reduction in cell viability at 80 mg/ml measured after 24 hrs by MTT assay; format: cell-based; conditions: human, hek293, 24 h
[2] = Aqueous solubility of the compound in 0.9% NaCl at >= 100 measured after 15 mins; format: physicochemical; conditions: buffer, 0.25 h
HEK293 [3] = test: Cytotoxicity against HEK293 cells assessed as reduction in cell viability at 40 mg/ml measured after 24 hrs by MTT assay; format: cell-based; conditions: human, hek293, 24 h
Erythrocyte = test: Hemolytic activity against rat RBC at 320 ug/ml measured after 1 hr; format: ADME, cell-based
HEK293 [4] = test: Cytotoxicity against HEK293 cells assessed as reduction in cell viability at >= 20 mg/ml measured after 24 hrs by MTT assay; format: cell-based; conditions: human, hek293, 24 h
Enterococcus faecalis [5] = test: Antibacterial activity against Enterococcus faecalis ATCC 29212 by broth microdilution method; format: functional
Staphylococcus aureus [6] = test: Antibacterial activity against methicillin-resistant Staphylococcus aureus SA11 by broth microdilution method; format: functional
Staphylococcus aureus [7] = test: Antibacterial activity against methicillin-resistant Staphylococcus aureus SA14 by broth microdilution method; format: functional
Enterococcus faecium [8] = test: Antibacterial activity against Enterococcus faecium ET60 by broth microdilution method; format: functional
Staphylococcus aureus [9] = test: Antibacterial activity against methicillin-resistant Staphylococcus aureus SA88 by broth microdilution method; format: functional
Staphylococcus aureus [10] = test: Antibacterial activity against Staphylococcus aureus ATCC 29213 by broth microdilution method; format: functional
Enterococcus faecium [11] = test: Antibacterial activity against Enterococcus faecium ET6 by broth microdilution method; format: functional
Staphylococcus aureus [12] = test: Antibacterial activity against methicillin-resistant Staphylococcus aureus SA86 by broth microdilution method; format: functional
Enterococcus faecalis [13] = test: Antibacterial activity against Enterococcus faecalis ZS129 by broth microdilution method; format: functional
Enterococcus faecalis [14] = test: Antibacterial activity against Streptococcus faecalis by broth microdilution method; format: functional
Staphylococcus aureus [15] = test: Antibacterial activity against methicillin-resistant Staphylococcus aureus 0114 infected in iv dosed CD-1 ICR mouse administered as single dose measured after 7 days; format: functional; conditions: Staphylococcus aureus, 0114, iv, 168 h
Staphylococcus aureus [16] = test: Antibacterial activity against Staphylococcus aureus ATCC 29213 assessed as mutation prevention concentration measured after 72 hrs; format: functional; conditions: ATCC 29213, 72 h
Enterococcus faecalis [17] = test: Bactericidal activity against Enterococcus faecalis ATCC 29212 incubated prior to replating on agar plate measured after overnight incubation; format: functional
Staphylococcus aureus [18] = test: Bactericidal activity against Staphylococcus aureus ATCC 29213 incubated prior to replating on agar plate measured after overnight incubation; format: functional
Staphylococcus aureus [19] = test: Antibacterial activity against Staphylococcus aureus USA300 infected in Balb/c mouse model of sepsis assessed as mouse survival at 0.925 mg/kg, sc administered twice daily for 5 days starting from 1 hr post-infection relative to control; format: functional
Staphylococcus aureus [20] = test: Antibacterial activity against Staphylococcus aureus ATCC 29213 assessed as ratio of MIC after and before 1 serial passage at sub-MIC by broth microdilution method; format: functional
Enterococcus faecalis [21] = test: Antibacterial activity against Enterococcus faecalis ATCC 29212 assessed as mutation prevention concentration measured after 72 hrs; format: functional; conditions: ATCC 29212, 72 h
Enterococcus faecalis [22] = test: Antibacterial activity against Enterococcus faecalis T1027 by broth microdilution method; format: functional
Staphylococcus aureus [23] = test: Antibacterial activity against Staphylococcus aureus ATCC 29213 assessed as ratio of MIC after and before 7 serial passages at sub-MIC by broth microdilution method; format: functional
Staphylococcus aureus [24] = test: Antibacterial activity against methicillin-resistant Staphylococcus aureus ATCC 33591 infected in iv dosed CD-1 ICR mouse administered as single dose measured after 7 days; format: functional; conditions: ATCC 33591, iv, 168 h

SMILES	solubility [2]	Activity (Erythrocyte)	MIC (Enterococcus faecalis [5]) [µg/mL]	MIC (Staphylococcus aureus [6]) [µg/mL]	MIC (Staphylococcus aureus [7]) [µg/mL]	MIC (Enterococcus faecium [8]) [µg/mL]	MIC (Staphylococcus aureus [9]) [µg/mL]	MIC (Staphylococcus aureus [10]) [µg/mL]	MIC (Enterococcus faecium [11]) [µg/mL]	MIC (Staphylococcus aureus [12]) [µg/mL]	also measured
CCCCCCCCCC(=O)N[C@@H](Cc1c[nH]c2ccccc12)C(=O)N[C@H](CC(N)=O)C(=O)N[C@@H](CC(=O)O)C(=O)N[C@@H]1C(=O)NCC(=O)N[C@@H](CCCN)C(=O)N[C@@H](CC(=O)O)C(=O)N[C@H](C)C(=O)N[C@@H](CC(=O)O)C(=O)NCC(=O)N[C@H](CO)C(=O)N[C@@H]([C@H](C)CC(=O)O)C(=O)N[C@@H](CC(=O)c2ccccc2NC)C(=O)O[C@@H]1C	Soluble	Non-Toxic									Activity (HEK293 [1]): Toxic; Activity (HEK293 [3]): Non-Toxic
CCCCCCCCCC(=O)N[C@@H](Cc1c[nH]c2ccccc12)C(=O)N[C@H](CC(N)=O)C(=O)N[C@@H](CC(=O)O)C(=O)N[C@@H]1C(=O)NCC(=O)N[C@@H](CCCN)C(=O)N[C@@H](CC(=O)O)C(=O)N[C@H](C)C(=O)N[C@@H](CC(=O)O)C(=O)NCC(=O)N[C@H](CO)C(=O)N[C@@H]([C@@H](C)CC(=O)O)C(=O)N[C@@H](CC(=O)c2ccccc2N)C(=O)O[C@@H]1C [listing 1 of 2 here]	Soluble	Non-Toxic									Activity (HEK293 [4]): Toxic
CCCCCCCCCC(=O)N[C@@H](Cc1cn(C)c2ccccc12)C(=O)N[C@@H](CC(N)=O)C(=O)N[C@@H](CC(=O)O)C(=O)N[C@@H]1C(=O)NCC(=O)N[C@@H](CCCN)C(=O)N[C@@H](CC(=O)O)C(=O)N[C@H](C)C(=O)N[C@@H](CC(=O)O)C(=O)NCC(=O)N[C@H](CO)C(=O)N[C@@H]([C@H](C)CC(=O)O)C(=O)N[C@@H](CC(=O)c2ccccc2N)C(=O)O[C@@H]1C			2 (≈ 1.22 µM)	2 (≈ 1.22 µM)	0.5 (≈ 0.306 µM)	1 (≈ 0.612 µM)	0.25 (≈ 0.153 µM)	0.5 (≈ 0.306 µM)	1 (≈ 0.612 µM)	0.5 (≈ 0.306 µM)	
CCCCCCCCCC(=O)N[C@@H](Cc1c[nH]c2ccccc12)C(=O)N[C@H](CC(N)=O)C(=O)N[C@@H](CC(=O)O)C(=O)N[C@@H]1C(=O)NCC(=O)N[C@@H](CCCN)C(=O)N[C@@H](CC(=O)O)C(=O)N[C@H](C)C(=O)N[C@@H](CC(=O)O)C(=O)NCC(=O)N[C@H](CO)C(=O)N[C@@H]([C@@H](C)CC(=O)O)C(=O)N[C@@H](CC(=O)c2ccccc2N)C(=O)O[C@@H]1C [listing 2 of 2 here]			4 (≈ 2.47 µM)	2 (≈ 1.23 µM)	0.5 (≈ 0.309 µM)	2 (≈ 1.23 µM)	0.5 (≈ 0.309 µM)	0.5 (≈ 0.309 µM)	4 (≈ 2.47 µM)	0.5 (≈ 0.309 µM)	MIC (Enterococcus faecalis [13]): 0.5 µg/mL (≈ 0.309 µM); MIC (Enterococcus faecalis [14]): 0.5 µg/mL (≈ 0.309 µM); ED50 (Staphylococcus aureus [15]): 2.19 mg/kg; MPC (Staphylococcus aureus [16]): 16 µg/mL; MBC (Enterococcus faecalis [17]): 16 µg/mL (≈ 9.87 µM); MBC (Staphylococcus aureus [18]): 0.25 µg/mL (≈ 0.154 µM); survival at 0.925 mg/kg (Staphylococcus aureus [19]): 50%; Ratio (Staphylococcus aureus [20]): 2; MPC (Enterococcus faecalis [21]): 32 µg/mL; MIC (Enterococcus faecalis [22]): 16 µg/mL (≈ 9.87 µM); Ratio (Staphylococcus aureus [23]): 8; ED50 (Staphylococcus aureus [24]): 2.14 mg/kg
